# Data: publication PMC11213865, “Mechanisms contributing to inhibition of retinal ganglion cell death by cell permeable peptain-1 under glaucomatous stress” (Cell Death Discovery, 2024)
# No end group written: not given here.
# Columns and labels:
# [1] = test system: Human retinal endothelial cells; assay: Cell penetration and retention, western blot with anti-P1 monoclonal antibody; type: in vitro ADME; conditions: 16 h; for intracellular concentration (level of P1 in cells, densitometry relative to β-actin): cell uptake, 100 µM peptide, serum-free DMEM/F12 (low glucose), cell lysate, western blot with anti-P1 monoclonal antibody, mean ± SEM, n = 3
# Protocol: Fig. 1 Conjugation with CPP increases the cell permeability of P1. A Human retinal endothelial cells were treated with vehicle (CONT), P1 or CPP-P1 (100 µM). Following incubation for 16 h, the levels of P1 in cells were detected by western blotting using an anti-P1 monoclonal antibody. Densitometric analysis was performed relative to β-actin levels (n = 3). Data represented as mean ± SEM, One-way ANOVA followed by Tukey’s multiple comparisons test, ***p < 0.001, ns-not significant. The entire western blot image is shown in Supplementary Figure 1. B Human retinal explants comparing the difference in neuroprotective efficacy of P1 with and without the CPP. C Representative images, RBPMS, Scale bar = 100 µm.
# Human retinal endothelial cells were incubated with vehicle, P1, or CPP-P1 (100 µM) in serum-free DMEM/F12 (low glucose) medium for 16 h. Cells were treated with 1X RIPA buffer containing protease inhibitor cocktail and cell lysates were prepared. Western blot was performed using an anti-P1 monoclonal antibody with β-actin as the loading control (n = 3).
# RGC = conditions: accumulates within RGC somas in a time-dependent manner; cited from earlier work
Sequence,"intracellular concentration (level of P1 in cells, densitometry relative to β-actin) [1]",RGC permeability (RGC),"cell permeability of CPP-P1 relative to P1 ([1]; 100 µM, human retinal endothelial cells, western blot)"
DRFSVNLDVKHFSPEELKVK [P1],0.23 ± 0.01,RGC-permeable,
VPTLKDRFSVNLDVKHFSPEELKVK [CPP-P1],1.41 ± 0.17,,approximately seven
